According to ChEMBL document CHEMBL4888484, “Replenishing the malaria drug discovery pipeline: Screening and hit evaluation of the MMV Hit Generation Library 1 (HGL1) against asexual blood stage Plasmodium falciparum ,using a nano luciferase reporter read-out” (2022):

Legend:
Plasmodium falciparum [1] = experiment: Hit confirmation in dose-response curve in NF54 nanoGlo assay, at 72h; format: functional, organism-based, Erythrocyte; set-up: timepoint 72 hour; details: Plasmodium falciparum, NF54, Erythrocyte, 72 h
Plasmodium falciparum [2] = experiment: Hit confirmation in dose-response curve in NF54 pLDH assay, at 72h; format: functional, organism-based; set-up: timepoint 72 hour; details: NF54, Erythrocyte
Plasmodium falciparum [3] = experiment: Hit confirmation in dose-response curve in Dd2 pLDH assay, at 72h; format: functional, organism-based; set-up: timepoint 72 hour; details: Dd2, Erythrocyte
Plasmodium falciparum [4] = experiment: Hit confirmation in dose-response curve in NF54 nanoGlo assay, at 12h; format: functional, organism-based, Erythrocyte; set-up: timepoint 12 hour; details: Plasmodium falciparum, NF54, Erythrocyte, 12 h
[5] = Hit confirmation in dose-response curve in HepG2 cytotoxicity assay, at 72h; format: toxicity, cell-based; set-up: timepoint 72 hour; details: human, HepG2 cells

SMILES	IC50 (Plasmodium falciparum [1]) [µM]	IC50 (Plasmodium falciparum [2]) [µM]	IC50 (Plasmodium falciparum [3]) [µM]	IC50 (Plasmodium falciparum [4]) [µM]	IC50 at 72 h [5] [µM]
Cn1c(N)c(S(=O)(=O)N2CCN(c3ccccc3Cl)CC2)c(=O)n(C)c1=O	1.51	> 10	> 10	0.501	> 10
Cc1ccc(OCC(=O)Nc2cc(C)nn2-c2nc3c(cnn3-c3ccc(C)c(C)c3)c(=O)[nH]2)cc1	2.09	4.07	6.92	> 10	> 10
Cc1cccc(CN2CCC[C@H](C(=O)c3ccc4c5c(cccc35)CC4)C2)n1	1.66	3.72	5.5	4.57	> 10
Cc1cc(=O)[nH]c(-n2nc(C3CC3)cc2NC(=O)C(C)(C)Oc2ccc(Cl)cc2)n1	1.1	> 10	5.01	> 10	> 10
COc1ccc2c(c1)[n+](CC(=O)c1ccc(-c3ccc(Br)cc3)cc1)c(CO)n2C	1.91	5.62	5.37	> 10	> 10
Cn1nccc1/C=C1\CC2C3CCc4cc(O)ccc4C3CCC2(C)C1O (stereo not given)	> 10	> 10	> 10	> 10	> 10
COc1ccc(Nc2nnc(-c3ccc(NC(=O)C(=O)NCCCn4ccnc4)cc3)s2)cc1	1.29	6.17	4.27	2.69	> 10
Clc1ccc(C[n+]2ccc(-c3nc4ccccc4o3)cc2)c(Cl)c1	0.575	0.603	0.525	> 10	> 10
CCOc1ccc(-[n+]2cc(-c3ccccc3)n3c2CCC3)cc1	0.832	0.759	1	> 10	> 10
COc1ccc(OC)c(NC(=O)CN2CCc3[nH]c4ccc(F)cc4c(=O)c3C2)c1	8.32	> 10	7.94	> 10	> 10
COc1ccc(-n2ncc3c(N)c4c(nc32)CCCC4=O)cc1	6.61	> 10	> 10	3.89	> 10
Brc1cccc(-c2ccc(-c3cc(-c4ccccc4)nnc3-c3ccccc3)o2)c1	6.61	> 10	> 10	2	> 10
COc1cccc(-c2nn(-c3nc(-c4ccccc4)cc(C(F)(F)F)n3)c(-c3cccc(OC)c3)c2Cl)c1	6.17	8.32	> 10	> 10	> 10
CC(C)c1cc(=O)[nH]c(-n2nc(C3CC3)cc2NC(=O)c2ccc(F)cc2)n1	0.708	6.46	2.82	> 10	10
S=c1cc(-c2ccccc2)n(Cc2ccco2)c2c1CCCC2	2.57	6.46	6.46	8.13	> 10
CC(C)CC[C@@H](CCNC1CCN(C)CC1)c1ccc(Cl)cc1	1.66	2.4	2.19	2.82	> 10
CCOc1ccc2ccccc2c1C(=O)Nc1cc(C)nn1-c1nc2c(c(=O)[nH]1)CCC2	0.589	2	2.09	> 10	> 10
CN1CCC(NCC[C@@H](Cc2ccccc2Cl)c2ccc(Cl)cc2)CC1	1.51	2.57	2.24	2.45	> 10
O=C(CCn1c(=O)[nH]c2ccsc2c1=O)NCc1ccccc1	9.12	> 10	> 10	> 10	> 10
O=C(Nc1onc2c1CCC2)c1ccc2ccccc2c1	2.82	4.79	4.27	3.02	4.07
Cc1cc(=O)[nH]c(-n2nc(C3CC3)cc2NC(=O)C(c2ccccc2)c2ccccc2)n1	0.955	2.14	3.09	8.32	7.59
CC1=CC(=[N+](CCO)CCO)C=C/C1=C(\c1ccc(N(CCO)CCO)cc1C)c1ccccc1Cl	0.0871	0.166	0.0871	7.41	> 10
Cc1cc(N)nc(Nc2ccc(Nc3ccccc3)cc2)n1	2.24	3.31	5.37	6.46	> 10
CN1CC[C@H](CN(C)Cc2ccc3cc(O)ccc3c2)C1	1.78	0.832	3.02	4.27	> 10

SMILES	IC50 (Plasmodium falciparum [1]) [µM]	IC50 (Plasmodium falciparum [2]) [µM]	IC50 (Plasmodium falciparum [3]) [µM]	IC50 (Plasmodium falciparum [4]) [µM]	IC50 at 72 h [5] [µM]
COc1cc2ncc3c(-c4ccc(C)c(C)c4)n[nH]c3c2cc1OC	4.27	> 10	5.25	7.59	> 10
CC(C)c1cc(=O)[nH]c(-n2nc(C3CC3)cc2NC(=O)COc2ccc3ccccc3c2)n1	1.62	9.33	8.91	> 10	> 10
Cc1c(-c2nn(-c3nc(C4CC4)cc(C(F)(F)F)n3)c(-c3cnn(C)c3C)c2Cl)cnn1C	1.1	> 10	> 10	0.407	> 10
c1ccc(-c2cn3c(n2)c(-c2ccc4ccccc4n2)cc2ccccc23)cc1	8.13	> 10	> 10	10.5	> 10
N#Cc1c(NC(=O)Nc2cn3ccccc3c2C#N)cn2ccccc12	0.302	1.35	1	> 10	> 10
Cc1ccc(-c2cc(O)cc(CC[C@H]3CCCCN3)c2)c(C)n1	1.86	2.82	1.66	5.62	> 10
FC(F)Oc1ccc(-c2c[n+](-c3cccc(C(F)(F)F)c3)c3n2CCCCC3)cc1	2.45	2.14	8.91	> 10	> 10
Cc1ccc(N2C(=O)c3ccccc3[C@@H]2c2c[nH]c3ccccc23)cc1	2.63	7.41	6.92	5.5	> 10
COc1nc(-c2cccc(C(=O)NCC3CCOCC3)c2)ncc1F	0.575	1.66	> 10	> 10	> 10
COc1ccc(Cl)cc1C(=O)Nc1cc(C2CC2)nn1-c1nc(C)cc(=O)[nH]1	1.78	> 10	8.13	> 10	> 10
Cc1c(C)n(CC(O)CNC(C)c2ccccc2)c2c(Cl)cccc12 (stereo not given)	2	9.77	8.51	3.16	10
O=C(Nc1cccc(Cl)c1)Nc1cccc(-c2cnc3n2CCC3)c1	2.4	5.37	3.89	5.89	> 10
Cc1cc(=O)[nH]c(-n2nc(C3CC3)cc2NC(=O)c2ccc(C(C)(C)C)cc2)n1	1.86	> 10	> 10	> 10	> 10
CCCC[C@H](Oc1ccc(C(C)(C)CC)cc1C(C)(C)CC)C(=O)Nc1ccc(NC(=O)C(F)(F)C(F)(F)C(F)(F)F)c(O)c1	2.95	> 10	3.72	7.24	> 10
CCC(CC)C(=O)Nc1cc(C2CC2)nn1-c1nc(-c2ccccc2)cc(=O)[nH]1	2.14	6.61	3.55	> 10	> 10
CC(NCC(O)Cn1c(-c2ccccc2)c(-c2ccccc2)c2ccc3ccccc3c21)c1ccccc1 (stereo not given)	1.62	9.12	7.94	1.95	> 10
O=C(c1cc(-c2ccco2)n[nH]1)N1CCC(N2CCC(Oc3ccccc3F)CC2)CC1	2.82	1.82	4.68	> 10	> 10
COc1ccc(C)c2sc(N(CCCn3ccnc3)C(=O)Cc3ccc(F)cc3)nc12	1.95	4.37	4.37	2.95	> 10
CC(C)(C)[C@H]1CCc2c(sc(NC(=O)C3(F)C(F)(F)C(F)(F)C(F)(F)C(F)(F)C3(F)F)c2C#N)C1	2.19	2.95	2.57	5.75	4.57
COc1ccc2cccc(NC(=O)c3cc(-c4cc(OC)c(OC)c(OC)c4)n[nH]3)c2n1	2.19	9.77	> 10	9.33	> 10
COc1ccc(NC(=O)C2(N(Cc3ccccc3)C(=O)Cn3nnc4ccccc43)CCCCC2)cc1	4.47	> 10	> 10	1.7	> 10
Cc1c(-c2ccc(F)cc2)[nH]c2ccc(CNc3nccc(N(C)C)n3)cc12	1.95	3.8	3.31	3.89	> 10
O=C(CCCc1ccccc1)Nc1cc(C2CC2)nn1-c1nc(-c2ccccc2)cc(=O)[nH]1	3.72	6.03	3.63	> 10	> 10
Cc1cc(C)n(-c2nc(Nc3ccc(Cl)cc3)nc(Nc3ccc(Cl)cc3)n2)n1	2.19	> 10	3.63	6.76	> 10
